According to ChEMBL document CHEMBL5058649, “Data for DCP probe BAY 1816032” (2022):

Legend:
[1] = target: Protein-tyrosine kinase 6 (Homo sapiens) (UniProt Q13882); test: BRK DiscoveRx kinase panel; settings: Compound concentration 1.0 uM
[2] = target: Cysteinyl leukotriene receptor 1 (Homo sapiens) (UniProt Q9Y271); test: Inhibition of Leukotriene, Cysteinyl CysLT1 at 10 µM in the Eurofins-Panlabs radioligand binding assay (Eurofins_assay_250460); parameters: ligand concentration 0.3 nM, non-specific ligand with concentration 0.3 µM Leukotriene D4, incubation time 30 min, incubation temperature 25 °C; settings: Compound concentration 10.0 uM
[3] = target: Serine/threonine-protein kinase D3 (Homo sapiens) (UniProt O94806); test: PRKD3 DiscoveRx kinase panel; settings: Compound concentration 1.0 uM
[4] = target: Ephrin type-A receptor 7 (Homo sapiens) (UniProt Q15375); test: EPHA7 DiscoveRx kinase panel; settings: Compound concentration 1.0 uM
[5] = target: Tyrosine-protein kinase JAK1 (Homo sapiens) (UniProt P23458); test: JAK1(JH2domain-pseudokinase) DiscoveRx kinase panel; settings: Compound concentration 1.0 uM
[6] = target: Mitogen-activated protein kinase 3 (Homo sapiens) (UniProt P27361); test: ERK1 DiscoveRx kinase panel; settings: Compound concentration 1.0 uM
[7] = target: Serine/threonine-protein kinase TBK1 (Homo sapiens) (UniProt Q9UHD2); test: TBK1 DiscoveRx kinase panel; settings: Compound concentration 1.0 uM
[8] = target: Alpha-2C adrenergic receptor (Homo sapiens, UniProt P18825); test: GPCRScan assay: inhibition of Alpha2C; parameters: radioligand conc. used [nm] 0.5 – 1.0, parental cells stable MDCK
Alpha-2C adrenergic receptor, sequence (P18825 whole entry): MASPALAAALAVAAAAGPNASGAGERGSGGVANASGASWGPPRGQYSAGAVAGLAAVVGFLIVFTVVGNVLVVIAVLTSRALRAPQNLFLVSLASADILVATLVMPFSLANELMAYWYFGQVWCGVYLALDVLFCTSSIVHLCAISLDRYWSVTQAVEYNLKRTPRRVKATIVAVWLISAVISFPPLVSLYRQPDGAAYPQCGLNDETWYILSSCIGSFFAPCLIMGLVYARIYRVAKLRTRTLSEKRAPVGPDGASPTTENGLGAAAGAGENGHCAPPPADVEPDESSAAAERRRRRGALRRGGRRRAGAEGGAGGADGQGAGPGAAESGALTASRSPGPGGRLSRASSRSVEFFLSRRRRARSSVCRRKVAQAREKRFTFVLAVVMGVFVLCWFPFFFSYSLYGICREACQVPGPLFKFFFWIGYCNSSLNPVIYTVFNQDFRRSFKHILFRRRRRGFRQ

[9] = target: Adenosine Transporter (Cavia porcellus) (UniProt H0V4R7+H0UUG1+H0V3Z5); test: Inhibition of Transporter, Adenosine at compound concentration of 10.0 uM in the Eurofins-Panlabs radioligand binding assay (Eurofins_assay_202000); assay type: protein assay; parameters: ligand concentration 0.5 nM, non-specific ligand with concentration 5 uM Nitrobenzylthioinosine, incubation time 30 min, incubation temperature 25 C; settings: Compound concentration 10.0 uM
[10] = target: Dual specificity mitogen-activated protein kinase kinase 7 (Homo sapiens) (UniProt O14733); test: MKK7 DiscoveRx kinase panel; settings: Compound concentration 1.0 uM
[11] = target: D(2) dopamine receptor (Homo sapiens) (UniProt P14416); settings: Compound concentration 10.0 uM
[12] = target: Serine/threonine-protein kinase BRSK2 (Homo sapiens) (UniProt Q8IWQ3); test: BRSK2 DiscoveRx kinase panel; settings: Compound concentration 1.0 uM
[13] = target: Platelet-activating factor receptor (Homo sapiens) (UniProt P25105); test: Inhibition of Platelet Activating Factor (PAF) at 10 µM in the Eurofins-Panlabs radioligand binding assay (Eurofins_assay_265010); settings: Compound concentration 10.0 uM
[14] = target: G protein-coupled receptor kinase 4 (Homo sapiens) (UniProt P32298); test: GRK4 DiscoveRx kinase panel; settings: Compound concentration 1.0 uM
G protein-coupled receptor kinase 4 (Homo sapiens), sequence (P32298 whole entry, looked up): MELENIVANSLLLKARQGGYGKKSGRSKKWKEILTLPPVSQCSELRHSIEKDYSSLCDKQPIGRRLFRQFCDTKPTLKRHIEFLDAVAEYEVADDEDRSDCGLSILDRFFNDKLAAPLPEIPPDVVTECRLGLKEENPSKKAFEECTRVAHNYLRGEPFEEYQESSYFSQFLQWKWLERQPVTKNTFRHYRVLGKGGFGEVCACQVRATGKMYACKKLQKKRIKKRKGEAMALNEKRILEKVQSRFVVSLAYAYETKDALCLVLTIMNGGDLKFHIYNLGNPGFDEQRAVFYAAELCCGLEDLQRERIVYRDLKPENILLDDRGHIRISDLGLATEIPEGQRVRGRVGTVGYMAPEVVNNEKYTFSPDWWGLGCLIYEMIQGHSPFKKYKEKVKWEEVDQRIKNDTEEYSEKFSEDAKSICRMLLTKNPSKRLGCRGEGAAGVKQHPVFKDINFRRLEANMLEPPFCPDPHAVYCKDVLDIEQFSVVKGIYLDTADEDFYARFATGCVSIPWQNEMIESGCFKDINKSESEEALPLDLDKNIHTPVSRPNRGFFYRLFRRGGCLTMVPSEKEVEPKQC

[15] = target: Ephrin type-B receptor 4 (Homo sapiens) (UniProt P54760); test: EPHB4 DiscoveRx kinase panel; settings: Compound concentration 1.0 uM
[16] = target: Serine/threonine-protein kinase WNK3 (Homo sapiens) (UniProt Q9BYP7); test: WNK3 DiscoveRx kinase panel; settings: Compound concentration 1.0 uM
[17] = target: Serine/threonine-protein kinase SIK2 (Homo sapiens) (UniProt Q9H0K1); test: SIK2 DiscoveRx kinase panel; settings: Compound concentration 1.0 uM
[18] = target: Tyrosine-protein kinase TXK (Homo sapiens) (UniProt P42681); test: TXK DiscoveRx kinase panel; settings: Compound concentration 1.0 uM
[19] = target: Mast/stem cell growth factor receptor Kit (Homo sapiens) (UniProt P10721); test: KIT DiscoveRx kinase panel; settings: Compound concentration 1.0 uM
Mast/stem cell growth factor receptor Kit (Homo sapiens), sequence (P10721 whole entry): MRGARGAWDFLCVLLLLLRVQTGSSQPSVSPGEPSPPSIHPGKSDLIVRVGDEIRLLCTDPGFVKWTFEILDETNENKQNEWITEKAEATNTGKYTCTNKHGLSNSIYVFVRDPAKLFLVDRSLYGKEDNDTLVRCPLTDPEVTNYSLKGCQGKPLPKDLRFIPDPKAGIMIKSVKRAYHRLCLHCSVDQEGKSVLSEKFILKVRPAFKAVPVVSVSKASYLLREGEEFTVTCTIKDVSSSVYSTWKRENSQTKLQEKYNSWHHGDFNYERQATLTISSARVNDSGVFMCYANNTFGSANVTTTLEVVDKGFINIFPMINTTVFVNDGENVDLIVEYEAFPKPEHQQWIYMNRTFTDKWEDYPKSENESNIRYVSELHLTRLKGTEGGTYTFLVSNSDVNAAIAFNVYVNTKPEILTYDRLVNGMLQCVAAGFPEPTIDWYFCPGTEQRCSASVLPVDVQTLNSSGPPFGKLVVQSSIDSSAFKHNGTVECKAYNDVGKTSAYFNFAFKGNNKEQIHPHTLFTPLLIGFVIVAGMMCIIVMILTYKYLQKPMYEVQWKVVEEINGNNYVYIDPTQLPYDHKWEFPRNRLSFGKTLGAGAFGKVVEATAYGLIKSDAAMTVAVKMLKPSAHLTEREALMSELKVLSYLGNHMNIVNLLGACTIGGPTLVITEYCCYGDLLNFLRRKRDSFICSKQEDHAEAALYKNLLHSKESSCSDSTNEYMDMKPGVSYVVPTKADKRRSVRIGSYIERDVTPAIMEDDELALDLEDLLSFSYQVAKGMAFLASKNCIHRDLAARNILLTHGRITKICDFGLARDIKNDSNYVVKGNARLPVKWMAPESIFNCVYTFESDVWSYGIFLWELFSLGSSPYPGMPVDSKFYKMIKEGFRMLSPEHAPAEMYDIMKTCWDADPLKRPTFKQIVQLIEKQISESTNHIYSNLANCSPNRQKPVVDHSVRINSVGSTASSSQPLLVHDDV

[20] = target: Gamma-aminobutyric acid type B receptor subunit 1 (Homo sapiens) (UniProt Q9UBS5); test: Inhibition of GABAB1A at compound concentration of 10.0 uM in the Eurofins-Panlabs radioligand binding assay (Eurofins_assay_228610); parameters: ligand concentration 4 nM; settings: Compound concentration 10.0 uM
[21] = target: SRSF protein kinase 2 (Homo sapiens) (UniProt P78362); test: SRPK2 DiscoveRx kinase panel; settings: Compound concentration 1.0 uM
[22] = target: Activin receptor type-2A (Homo sapiens) (UniProt P27037); test: ACVR2A DiscoveRx kinase panel; settings: Compound concentration 1.0 uM
[23] = target: Serine/threonine-protein kinase D1 (Homo sapiens) (UniProt Q15139); test: PRKD1 DiscoveRx kinase panel; settings: Compound concentration 1.0 uM
[24] = target: Mitogen-activated protein kinase kinase kinase 4 (Homo sapiens) (UniProt Q9Y6R4); test: MAP3K4 DiscoveRx kinase panel; settings: Compound concentration 1.0 uM
Mitogen-activated protein kinase kinase kinase 4 (Homo sapiens), sequence (Q9Y6R4 whole entry): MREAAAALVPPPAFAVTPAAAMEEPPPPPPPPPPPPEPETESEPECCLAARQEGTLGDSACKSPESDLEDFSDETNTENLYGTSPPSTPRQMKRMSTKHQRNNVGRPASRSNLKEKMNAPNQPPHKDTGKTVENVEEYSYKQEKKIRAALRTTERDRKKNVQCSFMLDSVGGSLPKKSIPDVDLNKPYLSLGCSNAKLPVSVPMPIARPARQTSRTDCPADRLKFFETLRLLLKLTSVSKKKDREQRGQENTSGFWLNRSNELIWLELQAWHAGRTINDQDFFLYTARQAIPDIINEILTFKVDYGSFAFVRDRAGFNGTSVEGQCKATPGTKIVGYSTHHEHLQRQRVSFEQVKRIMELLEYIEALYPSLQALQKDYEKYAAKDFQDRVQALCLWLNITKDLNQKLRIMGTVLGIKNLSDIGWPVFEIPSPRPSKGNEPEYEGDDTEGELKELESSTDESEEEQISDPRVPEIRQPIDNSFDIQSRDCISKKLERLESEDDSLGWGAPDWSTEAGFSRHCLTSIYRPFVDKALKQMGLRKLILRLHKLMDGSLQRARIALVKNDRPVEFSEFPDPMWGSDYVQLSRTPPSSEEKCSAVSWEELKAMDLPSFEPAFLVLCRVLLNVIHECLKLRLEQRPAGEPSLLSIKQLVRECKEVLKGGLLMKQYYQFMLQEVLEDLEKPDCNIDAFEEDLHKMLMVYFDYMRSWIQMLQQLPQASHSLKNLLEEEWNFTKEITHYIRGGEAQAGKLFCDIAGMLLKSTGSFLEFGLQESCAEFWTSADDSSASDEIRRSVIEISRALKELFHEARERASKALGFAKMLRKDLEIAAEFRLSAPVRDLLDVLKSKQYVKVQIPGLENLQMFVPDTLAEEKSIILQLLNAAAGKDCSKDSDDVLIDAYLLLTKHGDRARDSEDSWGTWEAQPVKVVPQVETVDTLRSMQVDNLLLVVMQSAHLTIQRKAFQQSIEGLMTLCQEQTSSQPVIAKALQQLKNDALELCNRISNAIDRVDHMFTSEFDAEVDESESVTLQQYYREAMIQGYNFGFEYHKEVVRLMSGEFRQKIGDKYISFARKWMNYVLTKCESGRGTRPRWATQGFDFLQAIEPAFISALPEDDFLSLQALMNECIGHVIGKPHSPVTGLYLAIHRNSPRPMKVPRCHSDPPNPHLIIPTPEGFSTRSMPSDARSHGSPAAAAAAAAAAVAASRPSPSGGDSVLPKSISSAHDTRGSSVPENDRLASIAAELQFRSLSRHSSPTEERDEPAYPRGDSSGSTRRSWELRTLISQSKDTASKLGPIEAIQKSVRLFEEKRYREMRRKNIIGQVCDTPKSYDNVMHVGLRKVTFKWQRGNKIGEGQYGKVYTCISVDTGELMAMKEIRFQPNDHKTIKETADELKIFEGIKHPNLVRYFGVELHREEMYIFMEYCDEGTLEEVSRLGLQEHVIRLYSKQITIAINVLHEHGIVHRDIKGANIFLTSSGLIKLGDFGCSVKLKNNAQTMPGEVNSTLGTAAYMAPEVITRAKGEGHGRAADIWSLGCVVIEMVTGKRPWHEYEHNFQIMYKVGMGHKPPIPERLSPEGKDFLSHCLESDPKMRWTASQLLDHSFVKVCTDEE

[25] = PHKG2 DiscoveRx kinase panel; settings: Homo sapiens; Compound concentration 1.0 uM
[26] = target: Activated CDC42 kinase 1 (Homo sapiens) (UniProt Q07912); test: TNK2 DiscoveRx kinase panel; settings: Compound concentration 1.0 uM
[27] = target: Serine/threonine-protein kinase Sgk1 (Homo sapiens) (UniProt O00141); test: SGK DiscoveRx kinase panel; settings: Compound concentration 1.0 uM
[28] = target: Serine/threonine-protein kinase SBK1 (Homo sapiens) (UniProt Q52WX2); test: SBK1 DiscoveRx kinase panel; settings: Compound concentration 1.0 uM
[29] = target: Serine/threonine-protein kinase MARK1 (Homo sapiens) (UniProt Q9P0L2); test: MARK1 DiscoveRx kinase panel; settings: Compound concentration 1.0 uM
[30] = target: Homeodomain-interacting protein kinase 1 (Homo sapiens) (UniProt Q86Z02); test: HIPK1 DiscoveRx kinase panel; settings: Compound concentration 1.0 uM
[31] = target: Cyclin-dependent kinase 17 (Homo sapiens) (UniProt Q00537); test: PCTK2 DiscoveRx kinase panel; settings: Compound concentration 1.0 uM
[32] = target: Rho-associated protein kinase 2 (Homo sapiens) (UniProt O75116); test: ROCK2 DiscoveRx kinase panel; settings: Compound concentration 1.0 uM
[33] = target: Dual specificity tyrosine-phosphorylation-regulated kinase 1B (Homo sapiens, UniProt Q9Y463); test: DYRK1B DiscoveRx kinase panel
[34] = target: Mitogen-activated protein kinase 1 (Homo sapiens) (UniProt P28482); test: ERK2 DiscoveRx kinase panel; settings: Compound concentration 1.0 uM
[35] = target: Cyclin-dependent kinase 19 (Homo sapiens) (UniProt Q9BWU1); test: CDK11 DiscoveRx kinase panel; settings: Compound concentration 1.0 uM
[36] = target: Dual specificity protein kinase CLK4 (Homo sapiens) (UniProt Q9HAZ1); test: CLK4 DiscoveRx kinase panel; settings: Compound concentration 1.0 uM
Dual specificity protein kinase CLK4 (Homo sapiens), sequence (Q9HAZ1 whole entry, looked up): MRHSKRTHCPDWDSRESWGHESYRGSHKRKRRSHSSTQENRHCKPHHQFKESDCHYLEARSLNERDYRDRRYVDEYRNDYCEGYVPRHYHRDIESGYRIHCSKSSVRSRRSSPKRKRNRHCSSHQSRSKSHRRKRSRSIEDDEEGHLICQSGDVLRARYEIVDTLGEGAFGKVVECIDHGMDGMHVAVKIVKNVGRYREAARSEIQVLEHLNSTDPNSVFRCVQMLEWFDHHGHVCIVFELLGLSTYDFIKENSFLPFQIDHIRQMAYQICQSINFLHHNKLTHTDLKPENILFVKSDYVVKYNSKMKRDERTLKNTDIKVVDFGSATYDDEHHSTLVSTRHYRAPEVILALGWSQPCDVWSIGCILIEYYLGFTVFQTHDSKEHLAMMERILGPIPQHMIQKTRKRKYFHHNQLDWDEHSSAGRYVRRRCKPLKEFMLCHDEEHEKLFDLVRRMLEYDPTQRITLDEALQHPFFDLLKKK

[37] = target: 5-hydroxytryptamine receptor 1A (Homo sapiens) (UniProt P08908); test: Serotonin (5-Hydroxytryptamine) 5-HT1A Eurofins-Panlabs radioligand binding assay; settings: Compound concentration 10.0 uM
5-hydroxytryptamine receptor 1A (Homo sapiens), sequence (P08908 whole entry): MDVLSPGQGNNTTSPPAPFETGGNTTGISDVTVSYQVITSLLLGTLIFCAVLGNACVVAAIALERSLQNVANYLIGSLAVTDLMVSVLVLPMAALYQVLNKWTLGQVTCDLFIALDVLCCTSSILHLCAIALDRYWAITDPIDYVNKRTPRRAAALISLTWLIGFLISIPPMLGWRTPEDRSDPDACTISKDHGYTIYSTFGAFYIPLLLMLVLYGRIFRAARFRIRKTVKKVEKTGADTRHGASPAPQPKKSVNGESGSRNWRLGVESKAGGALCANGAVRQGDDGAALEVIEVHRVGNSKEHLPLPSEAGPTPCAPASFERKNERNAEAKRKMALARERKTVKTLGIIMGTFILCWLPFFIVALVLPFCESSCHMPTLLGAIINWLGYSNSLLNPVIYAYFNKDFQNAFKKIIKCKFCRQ

[38] = target: Platelet-derived growth factor receptor alpha (Homo sapiens) (UniProt P16234); test: PDGFRA DiscoveRx kinase panel; settings: Compound concentration 1.0 uM
[39] = target: Glycogen synthase kinase-3 beta (Homo sapiens) (UniProt P49841); test: GSK3B DiscoveRx kinase panel; settings: Compound concentration 1.0 uM
[40] = target: Cyclin-dependent kinase 11B (Homo sapiens) (UniProt P21127); test: CDC2L1 DiscoveRx kinase panel; settings: Compound concentration 1.0 uM
[41] = target: Maternal embryonic leucine zipper kinase (Homo sapiens) (UniProt Q14680); test: MELK DiscoveRx kinase panel; settings: Compound concentration 1.0 uM
[42] = target: Serine/threonine-protein kinase ULK3 (Homo sapiens) (UniProt Q6PHR2); test: ULK3 DiscoveRx kinase panel; settings: Compound concentration 1.0 uM
[43] = target: Serine/threonine-protein kinase 24 (Homo sapiens) (UniProt Q9Y6E0); test: MST3 DiscoveRx kinase panel; settings: Compound concentration 1.0 uM
[44] = target: Insulin-like growth factor 1 receptor (Homo sapiens) (UniProt P08069); test: IGF1R DiscoveRx kinase panel; settings: Compound concentration 1.0 uM
[45] = target: Protein kinase C epsilon type (Homo sapiens) (UniProt Q02156); test: PRKCE DiscoveRx kinase panel; settings: Compound concentration 1.0 uM
[46] = target: Tyrosine-protein kinase ABL1 (Homo sapiens) (UniProt P00519); test: ABL1-nonphosphorylated DiscoveRx kinase panel; settings: Compound concentration 1.0 uM
[47] = target: Citron Rho-interacting kinase (Homo sapiens) (UniProt O14578); test: CIT DiscoveRx kinase panel; settings: Compound concentration 1.0 uM
[48] = target: SRSF protein kinase 1 (Homo sapiens) (UniProt Q96SB4); test: SRPK1 DiscoveRx kinase panel; settings: Compound concentration 1.0 uM

Protein-tyrosine kinase 6 (Homo sapiens), sequence (Q13882 whole entry, looked up): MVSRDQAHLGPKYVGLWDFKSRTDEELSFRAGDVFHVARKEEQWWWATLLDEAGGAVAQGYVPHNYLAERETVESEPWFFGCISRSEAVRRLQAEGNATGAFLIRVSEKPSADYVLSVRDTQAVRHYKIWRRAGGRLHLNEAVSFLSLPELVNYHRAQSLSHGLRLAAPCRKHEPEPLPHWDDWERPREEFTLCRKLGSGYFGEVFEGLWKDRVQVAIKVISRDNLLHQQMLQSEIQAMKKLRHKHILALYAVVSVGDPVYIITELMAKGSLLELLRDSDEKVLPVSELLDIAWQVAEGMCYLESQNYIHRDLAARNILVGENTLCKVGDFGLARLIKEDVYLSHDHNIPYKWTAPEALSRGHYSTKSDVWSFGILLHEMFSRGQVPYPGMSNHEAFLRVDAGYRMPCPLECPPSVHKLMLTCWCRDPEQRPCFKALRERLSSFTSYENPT

In the case of `COc1cnccc1Nc1nc(-c2nn(Cc3c(F)cc(OCCO)cc3F)c3ccccc23)ncc1OC`, the residual activity [1] is reported as 91%, the inhibition [2] is reported as 32% and the residual activity [3] is reported as 79%. It also gave a residual activity [4] of 98%, a residual activity [5] of 100% and a residual activity [6] of 88%. The residual activity [7] was 94%, the Ki [8] was > 10 µM and the pKi [8] was < 5. It also gave an inhibition [9] of 71%, a residual activity [10] of 98% and an inhibition [11] of 4%. For the same compound, the residual activity [12] was 83%, the inhibition [13] was 28% and the residual activity [14] was 79%. The residual activity [15] was 93%, the residual activity [16] was 87% and the residual activity [17] was 100%. It also gave a residual activity [18] of 64%, a residual activity [19] of 82% and an inhibition [20] of -2%. The residual activity [21] was 77%, the residual activity [22] was 100% and the residual activity [23] was 100%. For the same compound, the residual activity [24] was 80%, the residual activity [25] was 98% and the residual activity [26] was 100%. It also gave a residual activity [27] of 93%, a residual activity [28] of 100% and a residual activity [29] of 97%. For the same compound, the residual activity [30] was 94%, the residual activity [31] was 87% and the residual activity [32] was 100%. For the same compound, the Kd [33] was > 30 µM, the residual activity ([33]; Compound concentration 1.0 uM) was 6.7% and the residual activity [34] was 93%. It also gave a residual activity [35] of 78%, a residual activity [36] of 83% and an inhibition [37] of 0%. The residual activity [38] was 100%, the residual activity [39] was 100% and the residual activity [40] was 91%. It also gave a residual activity [41] of 84%, a residual activity [42] of 100% and a residual activity [43] of 100%. The residual activity [44] was 97%, the residual activity [45] was 100% and the residual activity [46] was 87%. The residual activity [47] was 52% and the residual activity [48] was 90%.
